This note sets out measurements from ChEMBL document CHEMBL1201862, “PubChem BioAssay data set” (2004).

Test systems include 786-0; HCT-15; HL-60; HOP-62; HT-29; IGROV-1; MDA-MB-231; Malme-3M; OVCAR-4; SK-MEL-28; SN12C; SR; U-251; UACC-257; UACC-62; A549; OVCAR-3; OVCAR-5; SF-295; SNB-19.
What all share (assay): NCI anticancer screen, dose series, 48 h

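Five compound concentrations were applied to cells in 96-well plates for 48 hours; endpoints were derived by simple linear interpolation of the resulting dose-response curve. At the GI50, growth is halved.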 Calls of active or inactive are those of the source. No stated cut-off is given here; in the data, active = GI50 up to about 1.1 µM and inactive = higher. Where only a bound is given, the exact number is not on record here.

As to `COc1ccc(CC2C(=O)NC(C)C(=O)N(C)C3Cc4ccc(cc4)Oc4cc(ccc4O)CC(C(=O)NC(C)C(=O)NC(C)C(=O)N2C)N(C)C3=O)cc1` (centres undefined), the GI50 with 786-0 is < 0.0001 µM (active); with HCT-15, 0.851 µM; in the test with HL-60, 0.0175 µM (active); with HOP-62, 0.0179 µM (active); with HT-29, 0.0355 µM (active); with IGROV-1 it was 0.0175 µM (active). In addition, the GI50 in the test on MDA-MB-231 is < 0.0001 µM (active); in the test on Malme-3M, 0.0175 µM (active); with OVCAR-4 it was 0.0175 µM (active); with SK-MEL-28, 0.0175 µM (active); in the test with SN12C it was 0.0175 µM (active); in the test on SR, < 0.0001 µM (active). Further, the GI50 with U-251, with UACC-257 and in the test on UACC-62 was 0.0175 µM (active) in each case.

Turning to `Cc1ccc(/N=N/NCCCCN/N=N/c2ccc(C)cc2)cc1`, the GI50 in the test with A549 was 6.04 µM (inactive); with HCT-15, 4.93 µM; in the test with HL-60, 1.75 µM (inactive); in the test with HOP-62 it was 47.9 µM (inactive); with HT-29, > 100 µM (inactive); in the test with IGROV-1 it was 12.5 µM (inactive). Moreover, the GI50 in the test on MDA-MB-231 was > 100 µM (inactive); with Malme-3M, > 100 µM (inactive); in the test on OVCAR-3, > 100 µM (inactive); in the test with OVCAR-4 it was > 100 µM (inactive); with OVCAR-5, > 100 µM (inactive); in the test on SF-295, 8.22 µM (inactive). Further, the GI50 in the test on SK-MEL-28 was > 100 µM (inactive); in the test with SN12C, > 100 µM (inactive); in the test on SR, 17.5 µM (inactive); in the test with U-251 it was > 100 µM (inactive); in the test with UACC-257 it was > 100 µM (inactive); in the test on UACC-62, > 100 µM (inactive).

Regarding `CC(=O)Nc1ccc2nc(N)n[n+]([O-])c2c1`, the GI50 in the test with 786-0 is > 100 µM (inactive); in the test with A549 it was > 100 µM (inactive); in the test on HCT-15, over 100 µM; with HL-60, > 100 µM (inactive); in the test with HOP-62, > 100 µM (inactive); in the test on HT-29, > 100 µM (inactive). In addition, the GI50 in the test with IGROV-1, with MDA-MB-231, with OVCAR-3, in the test on OVCAR-4, in the test on OVCAR-5 and in the test with SF-295 was > 100 µM (inactive) each time. For the same compound, the GI50 in the test with SK-MEL-28, in the test on SN12C, with SNB-19, in the test with SR, in the test on U-251 and in the test with UACC-257 was > 100 µM (inactive) in each case. In the test with UACC-62, the GI50 is > 100 µM (inactive).

Turning to `CC[N+]1(C)CCC(O)(c2ccc(Cl)cc2)C(C(=O)c2ccc(Cl)cc2)C1` (centres undefined), the GI50 was 22 µM in the test on HCT-15; 7.83 µM (inactive) in the test on HL-60; 23.8 µM (inactive) in the test with HOP-62; 29.1 µM (inactive) in the test on HT-29; 18.5 µM (inactive) in the test on IGROV-1; 14.9 µM (inactive) in the test with MDA-MB-231. Moreover, the GI50 with Malme-3M was 7.31 µM (inactive); with OVCAR-3, 20.5 µM (inactive); with OVCAR-4 it was 29.3 µM (inactive); in the test on OVCAR-5, 19.1 µM (inactive); with SF-295, > 10 µM (inactive); in the test with SK-MEL-28, 16 µM (inactive). The GI50 in the test with SN12C is 22.1 µM (inactive); with SNB-19, 17.2 µM (inactive); in the test with SR, 6.34 µM (inactive); in the test on U-251, 24.5 µM (inactive); in the test with UACC-257, 24.4 µM (inactive); with UACC-62, 14.7 µM (inactive).

For the compound `CN(C)S(=O)(=O)Nc1nnc(S(N)(=O)=O)s1`, the GI50 in the test on 786-0 is > 100 µM (inactive); in the test on A549 it was > 100 µM (inactive); in the test with HCT-15, over 100 µM; in the test with HL-60, > 100 µM (inactive); in the test on HOP-62, > 100 µM (inactive); in the test with HT-29, > 100 µM (inactive). For the same compound, the GI50 in the test on IGROV-1, in the test on MDA-MB-231, in the test with Malme-3M, in the test on OVCAR-3, with OVCAR-4 and with OVCAR-5 was > 100 µM (inactive) each time. Moreover, the GI50 with SF-295, with SK-MEL-28, in the test with SNB-19, in the test with SR, in the test on U-251 and in the test with UACC-62 was > 100 µM (inactive) throughout.

`Nc1ncnc2c1ncn2Cc1cccc(CCl)c1`: the GI50 in the test on 786-0 is 14.4 µM (inactive); with A549, 21.8 µM (inactive); in the test on HCT-15, 17.9 µM; in the test on HL-60, 15 µM (inactive); in the test with HOP-62, 12.7 µM (inactive); with HT-29, 22.8 µM (inactive). Besides, the GI50 in the test on IGROV-1 is 16.3 µM (inactive); in the test with MDA-MB-231, 16.6 µM (inactive); in the test on Malme-3M, 17.9 µM (inactive); in the test with OVCAR-3, 14.1 µM (inactive); in the test on OVCAR-4, 20.3 µM (inactive); in the test on OVCAR-5, 14.5 µM (inactive). Further, the GI50 is 15.9 µM (inactive) with SF-295; 19.8 µM (inactive) with SK-MEL-28; 15.1 µM (inactive) in the test with SN12C; 6.43 µM (inactive) in the test on SR; 13.8 µM (inactive) in the test on U-251; 14.8 µM (inactive) in the test on UACC-257. Besides, the GI50 in the test with UACC-62 was 12.8 µM (inactive).

With `CC(CO)CCNc1ncnc2c1ncn2CCC#N` (centres undefined), the GI50 in the test with 786-0, with A549, in the test on HL-60, with HOP-62, with HT-29 and with IGROV-1 was > 100 µM (inactive) each time. The GI50 in the test with MDA-MB-231, with Malme-3M, in the test on OVCAR-3, in the test with OVCAR-4, in the test with OVCAR-5 and in the test on SF-295 was > 100 µM (inactive) each time. The GI50 in the test with SK-MEL-28, in the test on SN12C, with SNB-19, in the test with SR, in the test on UACC-257 and in the test on UACC-62 was > 100 µM (inactive) throughout.

As for `CC(C)(C)C(=O)C(N)C(=O)C(C)(C)C`, the GI50 was > 100 µM (inactive) in the test on 786-0; > 100 µM (inactive) with A549; over 100 µM with HCT-15; > 100 µM (inactive) in the test with HL-60; > 100 µM (inactive) in the test with HOP-62; > 100 µM (inactive) in the test on MDA-MB-231. For the same compound, the GI50 in the test with Malme-3M, with OVCAR-4, in the test with OVCAR-5, with SF-295, in the test on SK-MEL-28 and with SN12C was > 100 µM (inactive) throughout. Moreover, the GI50 in the test with SNB-19, with SR, in the test on U-251, in the test with UACC-257 and in the test with UACC-62 was > 100 µM (inactive) each time.

As to `O=C(c1cccnc1)N1N=C(c2ccc3c(c2)OCO3)CC1(O)c1cc(F)c(Cl)cc1Cl` (centres undefined), the GI50 in the test with 786-0 was 18.6 µM (inactive); in the test with A549, 28.6 µM (inactive); in the test with HCT-15, 18 µM; in the test with HL-60, 20.2 µM (inactive); in the test on HOP-62 it was 18 µM (inactive); in the test with HT-29 it was 17.7 µM (inactive). In addition, the GI50 in the test with IGROV-1 was 11.4 µM (inactive); in the test on MDA-MB-231, 17.3 µM (inactive); in the test on Malme-3M, 23.4 µM (inactive); with OVCAR-3, 11 µM (inactive); in the test with OVCAR-4, 22.4 µM (inactive); with OVCAR-5, 22.3 µM (inactive). Also, the GI50 is 19.1 µM (inactive) with SF-295; 25.5 µM (inactive) in the test on SK-MEL-28; 18.5 µM (inactive) in the test on SN12C; 32.6 µM (inactive) with SNB-19; 14.7 µM (inactive) in the test on SR; 16.7 µM (inactive) in the test with U-251. Further, the GI50 with UACC-257 was 21.1 µM (inactive).

In the case of `CC1ON2CCCC2[C@H]1C(=O)N1C2CC3CCC2(CS1(=O)=O)C3(C)C` (some centres undefined), the GI50 with 786-0 was > 100 µM (inactive); in the test on A549 it was > 100 µM (inactive); with HCT-15, over 100 µM; with HL-60, > 100 µM (inactive); in the test with HOP-62, > 100 µM (inactive); with HT-29 it was > 100 µM (inactive). Besides, the GI50 in the test on IGROV-1, in the test on MDA-MB-231, in the test with Malme-3M, with OVCAR-3, in the test on OVCAR-4 and in the test on OVCAR-5 was > 100 µM (inactive) throughout. Besides, the GI50 with SF-295, in the test with SK-MEL-28, in the test on SN12C, in the test with SR, in the test with U-251 and in the test with UACC-257 was > 100 µM (inactive) each time. The GI50 in the test on UACC-62 is > 100 µM (inactive).

`c1ccc2c(NCCCCCCNc3c4ccccc4nc4ccccc34)c3ccccc3nc2c1`: the GI50 in the test on 786-0 is 0.232 µM (active); in the test with A549 it was 0.29 µM (active); in the test on HCT-15, 4.34 µM; with HL-60 it was 0.25 µM (active); in the test on HOP-62, 0.206 µM (active); in the test with HT-29, 0.0287 µM (active). The GI50 was 0.166 µM (active) in the test with IGROV-1; 0.08 µM (active) with MDA-MB-231; 1.17 µM (inactive) with Malme-3M; 0.277 µM (active) in the test on OVCAR-3; 0.429 µM (active) in the test with OVCAR-4; 0.13 µM (active) in the test with OVCAR-5. Moreover, the GI50 in the test on SF-295 was 0.281 µM (active); with SN12C, 0.137 µM (active); in the test with SNB-19, 0.649 µM (active); in the test with SR, 0.0288 µM (active); in the test with U-251, 0.276 µM (active); with UACC-257, 2.7 µM (inactive). The GI50 in the test with UACC-62 was 0.695 µM (active).
